The results in this text go back to patent US9737535B2, “Methods for treating cancer using TOR kinase inhibitor combination therapy comprising administering substituted pyrazino[2,3-b]pyrazines” (Signal Pharmaceuticals, LLC, priority 2014, dated 2017).

Counter-ions that a name gives are not always drawn.

Holding throughout (assay): Anti-proliferation assay (ATPLite), Chalice synergy score
What all share (assay type): cell-based
(ATP-based viability assays read luminescence as a measure of living cells.)

One test concerns BT-20. On the set-up: scale not given here. Particulars: Compound 1 in combination with the named second active agent, 72 h, mean of n = 3 experiments in triplicate. The source says: (§1) Cells were thawed from a liquid nitrogen preserved state.
(§2) The calculation for synergy score is provided below.
(§3) If T≧V0:100*[1−(T−V0)/(V−V0)]

For the next test, the system named is HCC-1500. On the set-up: scale not given here. The note with it: Compound 1 in combination with the named second active agent, 72 h, mean of n = 3 experiments in triplicate.
Text: as §1, §2, §3

For another test, the system named is HCC-1187. On the set-up: scale not given here. The note with it: Compound 1 in combination with the named second active agent, 72 h, mean of n = 3 experiments in triplicate.
Text: as §1, §2, §3

The next test relates to Hs-578-T. Particulars: Compound 1 in combination with second active agent, mean self-cross + 2σ threshold 4.09.
Text: as §1, §2, §3

For the next test, the system named is BT-549. Particulars: Compound 1 in combination with the named second active agent, 72 h, mean of n = 3 experiments in triplicate.
Text: as §1, §2, §3

The subject of the next test is HCC-1806. Particulars: Compound 1 in combination with the named second active agent, 72 h, mean of n = 3 experiments in triplicate.
Text: as §1, §2, §3

The test system of a further test is MDA-MB-436. The note with it: Compound 1 in combination with second active agent, mean self-cross + 2σ threshold 1.91.
Text: as §1, §2, §3

The test system of the next test is MDA-MB-157. Particulars: Compound 1 in combination with second active agent, mean self-cross + 2σ threshold 4.68.
Text: as §1, §2, §3

A further test relates to BT-474. Particulars: Compound 1 in combination with the named second active agent, 72 h, mean of n = 3 experiments in triplicate.
Text: as §1, §2, §3

Another test deals with MDA-MB-231. The note with it: Compound 1 in combination with second active agent, mean self-cross + 2σ threshold 2.61.
Text: as §1, §2, §3

The next test concerns HCC-1937. The note with it: Compound 1 in combination with the named second active agent, 72 h, mean of n = 3 experiments in triplicate.
Text: as §1, §2, §3

The next test has as its system MCF7. The note with it: Compound 1 in combination with second active agent, mean self-cross + 2σ threshold 3.07.
Text: as §1, §2, §3

The test system of a further test is HCC70. The note with it: Compound 1 in combination with second active agent; HCC-70; mean self-cross + 2σ threshold 3.45.
Text: as §1, §2, §3

Another test concerns HCC-1428. Particulars: Compound 1 in combination with the named second active agent, 72 h, mean of n = 3 experiments in triplicate.
Text: as §1, §2, §3

The subject of another test is MDA-MB-468. The note with it: Compound 1 in combination with second active agent, mean self-cross + 2σ threshold 4.66.
Text: as §1, §2, §3

Regarding `COc1ccc(C2=N[C@@H](c3ccc(Cl)cc3)[C@@H](c3ccc(Cl)cc3)N2C(=O)N2CCNC(=O)C2)c(OC(C)C)c1` [Nutlin-3], the Synergy score in the test on BT-20 came to 0.27; in the test on HCC-1500, 2.54; in the test with HCC-1187 it was 2.08; with Hs-578-T, 1.65; in the test with BT-549, 0.40; in the test on HCC-1806 it was 0.79. The Synergy score was 0.50 with MDA-MB-436; 0.66 with MDA-MB-157; 0.34 in the test with BT-474; 0.27 in the test with MDA-MB-231; 0.58 with HCC-1937; 2.05 in the test on MCF7. For the same compound, the Synergy score worked out at 2.72 in the test on HCC70 and 0.33 in the test with HCC-1428.

Turning to `CNC(=O)c1ccc(-c2cnc3ncc(Cc4ccc5ncccc5c4)n3n2)cc1F` [INCB28060], the Synergy score in the test on HCC-1500 turned out to be 0.52; in the test with HCC-1187 it was 2.94; in the test on Hs-578-T, 0.85; in the test on BT-549, 0.66; in the test on HCC-1806 it was 0.62; with MDA-MB-436 it was 0.49. The Synergy score is reported as 0.97 in the test on MDA-MB-157; 2.35 in the test on BT-474; 0.34 in the test on MDA-MB-231; 0.71 in the test with HCC-1937; 0.92 in the test with MCF7; 0.75 in the test on HCC70. The Synergy score in the test on MDA-MB-468 stood at 0.80; with HCC-1428, 0.75.

In the case of `Oc1c2ccccc2c2c3c(cccc13)N=N2` [SP 600125], the Synergy score was found to be 0.00 with BT-20; 1.15 in the test with HCC-1500; 5.59 in the test on HCC-1187; 0.97 in the test on Hs-578-T; 1.47 with BT-549; 1.16 in the test on HCC-1806. Also, the Synergy score with MDA-MB-436 is reported as 0.79; with MDA-MB-157, 1.18; in the test on BT-474, 0.72; in the test with MDA-MB-231 it was 0.65; in the test on HCC-1937 it was 0.87; in the test on MCF7 it was 0.75. Also, the Synergy score in the test with HCC70 stood at 3.49; in the test with HCC-1428, 1.44.

Regarding CHIR98014, the Synergy score with BT-20 came to 0.17; in the test with HCC-1187, 3.13; with Hs-578-T, 5.48; in the test with BT-549, 0.49; in the test on HCC-1806, 1.56; in the test with MDA-MB-436 it was 0.64. Besides, the Synergy score in the test with MDA-MB-157 is listed as 3.17; in the test on BT-474, 0.02; in the test on MDA-MB-231 it was 3.91; in the test with HCC-1937 it was 0.63; in the test with MCF7, 0.29; in the test on HCC70 it was 0.82. Besides, the Synergy score with MDA-MB-468 is 3.00; with HCC-1428, 0.72.

As to `COc1cc2nccc(Oc3ccc(NC(=O)C4(C(=O)Nc5ccc(F)cc5)CC4)cc3)c2cc1OC` [XL184], the Synergy score with BT-20 stood at 3.67; in the test with HCC-1500, 1.20; in the test on HCC-1187, 1.29; in the test with Hs-578-T, 3.19; in the test on BT-549 it was 0.52; with HCC-1806, 1.44. The Synergy score with MDA-MB-436 is listed as 0.90; with BT-474 it was 1.51; with HCC-1937, 2.15; in the test with MCF7, 4.34; in the test on HCC70 it was 1.47; in the test with MDA-MB-468 it was 1.84. In the test with HCC-1428, the Synergy score was determined as 1.19.

Turning to `CC(=O)c1c(C)c2cnc(Nc3ccc(N4CCNCC4)cn3)nc2n(C2CCCC2)c1=O` [PD-0332991], the Synergy score with HCC-1500 came to 2.71; in the test with HCC-1187 it was 2.76; with Hs-578-T, 0.75; in the test with BT-549 it was 1.10; in the test with HCC-1806, 1.54; in the test on MDA-MB-436 it was 0.44. The Synergy score with MDA-MB-157 was determined as 0.73; with BT-474 it was 0.31; in the test on MDA-MB-231, 2.88; in the test with HCC-1937 it was 0.55; in the test on MCF7, 2.48; with HCC70 it was 2.17. The values for the Synergy score in the test with MDA-MB-468 and in the test on HCC-1428 were 2.12 and 2.01, respectively.

For the compound `O=C(/C=C/c1cccnc1)NCCCCC1CCN(C(=O)c2ccccc2)CC1` [FK-866], the Synergy score in the test with BT-20 is 0.30; in the test with HCC-1500, 1.15; in the test on HCC-1187, 0.25; in the test with Hs-578-T it was 5.32; with BT-549 it was 0.11; with HCC-1806 it was 0.00. In addition, the Synergy score in the test on MDA-MB-436 is 0.97; in the test with BT-474, 0.60; with HCC-1937, 0.60; in the test on MCF7, 0.04; in the test with HCC70 it was 0.30; in the test with MDA-MB-468 it was 0.28. Moreover, in the test on HCC-1428, the Synergy score is reported as 0.20.

On to `CC(C)(C)Cn1c(N)nc2ccc(-c3[nH]c(C(C)(C)C)nc3-c3ccc(F)cc3)nc21` [LY2228820], for which the Synergy score in the test on BT-20 came to 0.20; with HCC-1500 it was 3.91; with HCC-1187, 0.80; in the test with BT-549, 1.26; in the test with HCC-1806, 2.81; with MDA-MB-436, 1.32. Moreover, the Synergy score in the test on MDA-MB-157 was found to be 5.64; in the test on BT-474 it was 2.81; with MDA-MB-231, 2.18; with MCF7 it was 3.76; in the test with HCC70, 3.65; in the test with MDA-MB-468, 5.77. Besides, the Synergy score with HCC-1428 amounted to 1.80.

`CCc1c2c(nc3ccc(OC(=O)N4CCC(N5CCCCC5)CC4)cc13)-c1cc3c(c(=O)n1C2)COC(=O)[C@]3(O)CC` [Irinotecan Hydrochloride]: the Synergy score with BT-20 came out at 2.59; in the test with HCC-1500, 4.45; with HCC-1187, 3.01; with BT-549, 1.25; in the test on MDA-MB-436, 3.61; with MDA-MB-157 it was 5.71. The Synergy score with BT-474 was 1.17; in the test with MDA-MB-231, 1.64; with HCC-1937, 3.92; with MCF7 it was 2.02; with HCC70, 1.98; in the test with MDA-MB-468, 8.45. Moreover, in the test on HCC-1428, the Synergy score turned out to be 0.76.

For the compound `O=C(Nc1cccc(Nc2ncc(Br)c(NCCc3c[nH]cn3)n2)c1)N1CCCC1` [BX-912], the Synergy score turned out to be 1.32 in the test with BT-20; 2.11 in the test with HCC-1500; 4.10 in the test on HCC-1187; 6.07 with Hs-578-T; 1.52 in the test on BT-549; 0.57 with HCC-1806. The Synergy score in the test on MDA-MB-436 was found to be 2.50; with MDA-MB-157 it was 6.65; in the test with BT-474 it was 0.87; in the test on HCC-1937, 0.44; in the test with MCF7 it was 0.69; with HCC70 it was 6.05. The Synergy score in the test on MDA-MB-468 was 8.29; in the test with HCC-1428, 2.05.

For the compound `C=CC(=O)N1CCC[C@@H](n2nc(-c3ccc(Oc4ccccc4)cc3)c3c(N)ncnc32)C1` [PCI-32765], the Synergy score with BT-20 is reported as 6.26; in the test with HCC-1500 it was 0.56; in the test on HCC-1187, 1.70; in the test on BT-549, 0.05; with HCC-1806, 3.72; in the test with MDA-MB-436, 0.07. In addition, the Synergy score is reported as 3.28 in the test on MDA-MB-157; 5.95 with BT-474; 0.27 in the test with MDA-MB-231; 1.62 in the test with HCC-1937; 0.13 in the test on MCF7; 6.29 in the test on HCC70. The Synergy score with MDA-MB-468 was 3.10; in the test on HCC-1428 it was 0.59.

As to `N.N.O=C([O-])C1(C(=O)[O-])CCC1.[Pt+2]` [Carboplatin], the Synergy score with BT-20 is 0.98; in the test on HCC-1187, 2.20; in the test with Hs-578-T, 1.65; in the test on BT-549, 0.72; in the test with HCC-1806 it was 0.44; in the test on MDA-MB-436, 1.10. Besides, the Synergy score in the test on MDA-MB-157 is listed as 1.77; in the test with BT-474, 0.30; in the test with MDA-MB-231, 0.45; with HCC-1937, 2.46; in the test on MCF7, 0.80; with HCC70 it was 2.26. Besides, the figures for the Synergy score in the test with MDA-MB-468 and in the test with HCC-1428 were 7.18 and 0.52, respectively.
